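Growth conditions: 96-well plates. Treatment: test compound, 48 hours, 5 concentrations. Analysis: linear interpolation between bracketing concentrations; unreached endpoints set to highest concentration. The concentration for 50% growth inhibition is given as GI50. TGI: concentration producing complete growth inhibition.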
Legend:
Assay in all cases: DTP human tumour cell line panel, 48 h
[1] = tested on: NCI-H23 lung
[2] = tested on: HL-60(TB) leukemia
[3] = tested on: SF-268 CNS
[4] = tested on: HT29 colon
[5] = tested on: TK-10 renal
[6] = tested on: NCI-H460 lung
[7] = tested on: SF-295 CNS
[8] = tested on: CAKI-1 renal
[9] = tested on: HS 578T breast
[10] = tested on: UO-31 renal
[11] = tested on: SN12C renal
[12] = tested on: SW-620 colon
[13] = tested on: HCC-2998 colon
[14] = tested on: NCI-H522 lung
[15] = tested on: SK-OV-3 ovarian
[16] = tested on: OVCAR-5 ovarian
[17] = tested on: RXF 393 renal
[18] = tested on: MDA-MB-231 breast
[19] = tested on: SK-MEL-28 melanoma
[20] = tested on: A549 NSCLC
[21] = tested on: OVCAR-3 ovarian
[22] = tested on: SF-539 CNS
[23] = tested on: UACC-62 melanoma
[24] = tested on: SK-MEL-2 melanoma
[25] = tested on: T-47D breast
[26] = tested on: SNB-19 CNS
[27] = tested on: PC-3 prostate
[28] = tested on: K-562 leukemia
[29] = tested on: U251 CNS
[30] = tested on: BT-549 breast
[31] = tested on: HOP-62 NSCLC
[32] = tested on: CCRF-CEM leukemia
[33] = tested on: HCT-116 colon
[34] = tested on: RPMI-8226 leukemia
[35] = tested on: SNB-75 CNS
[36] = tested on: HCT-15 colon
[37] = tested on: OVCAR-8 ovarian
[38] = tested on: KM12 colon
[39] = tested on: MDA-MB-435
[40] = tested on: MCF7 breast
[41] = tested on: MALME-3M melanoma
[42] = tested on: NCI/ADR-RES ovarian
[43] = tested on: SK-MEL-5 melanoma
[44] = tested on: HOP-92 NSCLC
[45] = tested on: IGROV1 ovarian
[46] = tested on: OVCAR-4 ovarian
[47] = tested on: COLO 205 colon
[48] = tested on: DU-145 prostate
[49] = tested on: UACC-257 melanoma
[50] = tested on: LOX IMVI melanoma
[51] = tested on: NCI-H226 lung
[52] = tested on: SR leukemia
[53] = tested on: EKVX NSCLC
[54] = tested on: ACHN renal
[55] = tested on: A498 renal
[56] = tested on: MOLT-4 leukemia
[57] = tested on: M14 melanoma

COc1ccc2cnc(N)c(C#Cc3cc(C(=O)Nc4ccc(CN5CCN(C)CC5)c(C(F)(F)F)c4)cnc3C)c2c1
GI50 [1]: 1480 nM | TGI [1]: 12500 nM | GI50 [2]: 1070 nM | TGI [2]: > 50000 nM | GI50 [3]: 2680 nM | TGI [3]: > 29600 nM | GI50 [4]: 112 nM | TGI [4]: 6010 nM | GI50 [5]: 3220 nM | TGI [5]: 12400 nM | GI50 [6]: 1230 nM | TGI [6]: 4460 nM | GI50 [7]: 9470 nM | TGI [7]: > 33700 nM | GI50 [8]: 1560 nM | TGI [8]: 9250 nM | GI50 [9]: 269 nM | TGI [9]: 1500 nM | GI50 [10]: 412 nM | TGI [10]: 1220 nM | GI50 [11]: 490 nM | TGI [11]: > 25300 nM | GI50 [12]: 692 nM | TGI [12]: 6250 nM | GI50 [13]: > 37200 nM | TGI [13]: > 50000 nM | GI50 [14]: 7810 nM | TGI [14]: 32900 nM | GI50 [15]: > 21100 nM | TGI [15]: > 50000 nM | GI50 [16]: 640 nM | TGI [16]: 1730 nM | GI50 [17]: 488 nM | TGI [17]: 1280 nM | GI50 [18]: 158 nM | TGI [18]: 3910 nM | GI50 [19]: 372 nM | TGI [19]: 1290 nM | GI50 [20]: 6590 nM | TGI [20]: > 26900 nM | GI50 [21]: 11400 nM | TGI [21]: > 50000 nM | GI50 [22]: 974 nM | TGI [22]: 7910 nM | GI50 [23]: 190 nM | TGI [23]: 4200 nM | GI50 [24]: 3590 nM | TGI [24]: 14600 nM | GI50 [25]: > 50000 nM | TGI [25]: > 50000 nM | GI50 [26]: 3710 nM | TGI [26]: 14700 nM | GI50 [27]: 2690 nM | TGI [27]: 9170 nM | GI50 [28]: 5 nM | TGI [28]: 749 nM | GI50 [29]: 1080 nM | TGI [29]: 2810 nM | GI50 [30]: 4220 nM | TGI [30]: 16400 nM | GI50 [31]: 1190 nM | TGI [31]: > 18800 nM | GI50 [32]: 1970 nM | TGI [32]: 13100 nM | GI50 [33]: 498 nM | TGI [33]: 9880 nM | GI50 [34]: 2550 nM | TGI [34]: 23100 nM | GI50 [35]: 801 nM | TGI [35]: 8900 nM | GI50 [36]: 1690 nM | TGI [36]: 12900 nM | GI50 [37]: 9330 nM | TGI [37]: > 28900 nM | GI50 [38]: 5 nM | TGI [38]: 9240 nM | GI50 [39]: 240 nM | TGI [39]: 6990 nM | GI50 [40]: 1430 nM | TGI [40]: 22200 nM | GI50 [41]: 70.8 nM | TGI [41]: 1830 nM | GI50 [42]: 10300 nM | TGI [42]: > 34700 nM | GI50 [43]: 1060 nM | TGI [43]: 7900 nM | GI50 [44]: 62.9 nM | TGI [44]: 796 nM | GI50 [45]: 318 nM | TGI [45]: > 40200 nM | GI50 [46]: 1710 nM | TGI [46]: 14600 nM | GI50 [47]: 208 nM | TGI [47]: > 50000 nM | GI50 [48]: 2430 nM | TGI [48]: 10100 nM | GI50 [49]: 1200 nM | TGI [49]: 14400 nM | GI50 [50]: 153 nM | TGI [50]: 8930 nM | GI50 [51]: 383 nM | TGI [51]: 2590 nM | GI50 [52]: 707 nM | TGI [52]: 2860 nM | GI50 [53]: 3660 nM | TGI [53]: 19400 nM | GI50 [54]: 449 nM | TGI [54]: 3540 nM | GI50 [55]: 680 nM | TGI [55]: 3040 nM | GI50 [56]: 906 nM | TGI [56]: 26800 nM | GI50 [57]: 124 nM | TGI [57]: 5350 nM

Source: PubChem BioAssay (NCI)
